Assay results taken from PMC5515969, “Effects of 31 FDA approved small-molecule kinase inhibitors on isolated rat liver mitochondria” (Archives of Toxicology, 2016).

Key:
[1] = test system: isolated rat liver mitochondria; test: Mitochondrial oxygen consumption (glutamate/malate or succinate driven, state 4 and state 3); type: biochemical; conditions: DMSO treated samples set as 1; on State 3 respiration driven by succinate at 10XCmax: key: 0 indicates that the drug had no effects (negative); on State 3 respiration driven by succinate at 1XCmax: key: 0 indicates that the drug had no effects (negative)
Outline: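 Oxygen uptake on glutamate/malate or on succinate defined state 4; ADP added 3 min later gave state 3. Mitochondria isolated from rat liver by differential centrifugation, adjusted to 1 mg/ml and pretreated 5 min with inhibitor (0.1% DMSO final). Values relative to DMSO control, set to 1.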

[2] = test system: RCC I; test: RCC I activity in submitochondrial particles; type: biochemical, rat; parameters: key to RCC I at 10XCmax / RCC I at 100XCmax / RCC I at 50XCmax / RCC I at 30XCmax / RCC I at 20XCmax: activity relative to DMSO-treated controls (control set as 1 = 100%); conditions: 10XCmax; relative to DMSO treated samples
Outline: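 Kinase inhibitors were preincubated 15 min with submitochondrial particles (1 mg/ml) before complex activities were measured. RCC I was the rotenone-sensitive portion (activity without minus with rotenone). RCC I/V was read at 340 nm and RCC II at 600 nm every 1 min for 6 min. RCC III and IV were read at 550 nm every 10 s for 2 min. Activities are normalized to DMSO controls set as 1.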

[3] = target: T1, RCC II (Rattus norvegicus, UniProt P21913+Q641Z9+Q6PCT8+Q920L2); test: RCC II activity in submitochondrial particles; type: biochemical; parameters: key: activity relative to DMSO-treated controls (control set as 1 = 100%); conditions: relative to DMSO treated samples
T1 construct: Submitochondrial particles were prepared by subjecting the intact mitochondria to three successive freeze–thaw cycles; from tissue; host or cells: rat liver mitochondria, used as submitochondrial particles
Outline: (§1)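 Absorbance kinetics: A340 (RCC I, V) and A600 (RCC II) read each minute over 6 min, A550 (RCC III, IV) every 10 s over 2 min; RCC I taken as […]. Particles (1 mg/ml) pretreated 15 min with compound; DMSO-treated activity = 1.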

[4] = test system: RCC V; test: RCC V activity in submitochondrial particles; type: biochemical, rat; conditions: 5XCmax; relative to DMSO treated samples; further: key: 0 indicates that the drug had no effects (negative)
Outline: as §1

[5] = test system: isolated rat liver mitochondria; test: Mitochondrial inner membrane potential (MMP), Rhodamine 123; type: biochemical; conditions: difference in signal between KI and DMSO treated samples at the end of experiments
Description: Fig. 3 KI effects on mitochondrial inner membrane potential (MMP). […] In a, c, data are means and standard derivations from three separate experiments. *p < 0.05 as compared to DMSO-treated samples at the end of experiments. In b, data are means of two independent experiments

[6] = test system: isolated rat liver mitochondria; conditions: positive control alamethicin treated samples
[7] = human therapeutic Cmax at FDA recommended dosages; ref product labeling and drug approval packages at the official FDA website; cited from earlier work
[8] = test system: isolated rat liver mitochondria; test: Mitochondrial ROS production (CM-H2DCFDA); conditions: DMSO treated samples set as 1

T1 sequence (Q920L2 35-656): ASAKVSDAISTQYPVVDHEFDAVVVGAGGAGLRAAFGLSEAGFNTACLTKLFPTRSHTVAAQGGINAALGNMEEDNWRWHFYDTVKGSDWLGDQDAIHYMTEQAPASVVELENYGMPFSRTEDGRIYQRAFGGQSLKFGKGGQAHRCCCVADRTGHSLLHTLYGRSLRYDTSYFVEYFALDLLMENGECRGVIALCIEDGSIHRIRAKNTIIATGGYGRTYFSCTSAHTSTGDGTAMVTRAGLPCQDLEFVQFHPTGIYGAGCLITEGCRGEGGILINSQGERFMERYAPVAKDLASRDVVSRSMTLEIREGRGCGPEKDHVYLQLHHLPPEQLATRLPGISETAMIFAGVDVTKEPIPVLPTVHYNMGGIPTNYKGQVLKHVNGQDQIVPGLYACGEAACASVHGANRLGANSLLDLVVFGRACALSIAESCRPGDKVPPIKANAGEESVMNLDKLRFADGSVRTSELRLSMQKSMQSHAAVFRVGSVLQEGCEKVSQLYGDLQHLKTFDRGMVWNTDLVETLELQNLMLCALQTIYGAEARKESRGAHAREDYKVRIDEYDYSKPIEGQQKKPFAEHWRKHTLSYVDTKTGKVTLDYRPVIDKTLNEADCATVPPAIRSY
T1 sequence (P21913 31-282): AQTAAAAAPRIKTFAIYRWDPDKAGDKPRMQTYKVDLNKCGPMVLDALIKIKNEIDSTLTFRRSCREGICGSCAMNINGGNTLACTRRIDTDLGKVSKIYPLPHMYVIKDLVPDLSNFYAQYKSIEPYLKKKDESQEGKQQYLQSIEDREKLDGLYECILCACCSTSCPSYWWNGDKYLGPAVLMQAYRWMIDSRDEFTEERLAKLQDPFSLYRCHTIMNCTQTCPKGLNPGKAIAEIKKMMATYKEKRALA
T1 sequence (Q641Z9 1-169): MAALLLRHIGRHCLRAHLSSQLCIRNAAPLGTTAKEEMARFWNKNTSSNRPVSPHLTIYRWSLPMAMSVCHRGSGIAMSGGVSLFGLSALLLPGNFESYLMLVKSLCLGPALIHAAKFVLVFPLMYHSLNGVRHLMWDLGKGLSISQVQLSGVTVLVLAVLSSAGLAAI
T1 sequence (Q6PCT8 57-159): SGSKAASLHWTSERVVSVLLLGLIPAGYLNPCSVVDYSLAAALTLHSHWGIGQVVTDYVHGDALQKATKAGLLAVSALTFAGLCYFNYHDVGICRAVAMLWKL

## CCCS(=O)(=O)Nc1ccc(F)c(C(=O)c2c[nH]c3ncc(-c4ccc(Cl)cc4)cc23)c1F [Vemurafenib]
[1]; 1XCmax
  State 3 respiration driven by glutamate/malate at 1XCmax: 0
  State 3 respiration driven by succinate at 1XCmax: 0
  State 4 respiration driven by glutamate/malate at 1XCmax: 0
  State 4 respiration driven by succinate at 1XCmax: 0
[1]; 2.5XCmax
  State 3 respiration driven by glutamate/malate at 2.5XCmax: 0
  State 3 respiration driven by succinate at 2.5XCmax: 0
  State 4 respiration driven by glutamate/malate at 2.5XCmax: 0
  State 4 respiration driven by succinate at 2.5XCmax: 0
[1]; 5XCmax
  State 3 respiration driven by glutamate/malate at 5XCmax: 0
  State 3 respiration driven by succinate at 5XCmax: 0
  State 4 respiration driven by glutamate/malate at 5XCmax: 0
  State 4 respiration driven by succinate at 5XCmax: 0
[1]; 10XCmax
  State 3 respiration driven by glutamate/malate at 10XCmax: 0
  State 3 respiration driven by succinate at 10XCmax: 0
  State 4 respiration driven by glutamate/malate at 10XCmax: 0
  State 4 respiration driven by succinate at 10XCmax: 0
[1]; 20XCmax
  State 3 respiration driven by glutamate/malate at 20XCmax: 0
  State 3 respiration driven by succinate at 20XCmax: 0
  State 4 respiration driven by glutamate/malate at 20XCmax: 0
  State 4 respiration driven by succinate at 20XCmax: 0
[1]; 30XCmax
  State 3 respiration driven by glutamate/malate at 30XCmax: 0
  State 3 respiration driven by succinate at 30XCmax: 0
  State 4 respiration driven by glutamate/malate at 30XCmax: 0
  State 4 respiration driven by succinate at 30XCmax: 0
[1]; 50XCmax
  State 3 respiration driven by glutamate/malate at 50XCmax: 0
  State 3 respiration driven by succinate at 50XCmax: 0
  State 4 respiration driven by glutamate/malate at 50XCmax: 0
  State 4 respiration driven by succinate at 50XCmax: 0
[1]; 100XCmax
  State 3 respiration driven by glutamate/malate at 100XCmax: 0
  State 3 respiration driven by succinate at 100XCmax: 0
  State 4 respiration driven by glutamate/malate at 100XCmax: 0
  State 4 respiration driven by succinate at 100XCmax: 0
[2]
  RCC I at 10XCmax: 0
[3]; 1.0XCmax
  RCC II at 1.0XCmax: 0
[3]; 2.5XCmax
  RCC II at 2.5XCmax: 0
[3]; 5XCmax
  RCC II at 5XCmax: 0
[3]; 10XCmax
  RCC II at 10XCmax: 0
[3]; 20XCmax
  RCC II at 20XCmax: 0
[3]; 30XCmax
  RCC II at 30XCmax: 0
[3]; 50XCmax
  RCC II at 50XCmax: 0
[3]; 100XCmax
  RCC II at 100XCmax: 0
[4]
  RCC V at 5XCmax: 0
[5]; 1XCmax
  MMP measured by Rhodamine 123 at 1XCmax: 0
[5]; 2.5XCmax
  MMP measured by Rhodamine 123 at 2.5XCmax: 0
[5]; 5XCmax
  MMP measured by Rhodamine 123 at 5XCmax: 0
[5]; 10XCmax
  MMP measured by Rhodamine 123 at 10XCmax: 0
[5]; 20XCmax
  MMP measured by Rhodamine 123 at 20XCmax: 0
[5]; 30XCmax
  MMP measured by Rhodamine 123 at 30XCmax: 0
[5]; 50XCmax
  MMP measured by Rhodamine 123 at 50XCmax: 0
[5]; 100XCmax
  MMP measured by Rhodamine 123 at 100XCmax: 0
[6]; 1XCmax
  Cytochrome c release 1XCmax: 0
[6]; 2.5XCmax
  Cytochrome c release 2.5XCmax: 0
[6]; 5XCmax
  Cytochrome c release 5XCmax: 0
[6]; 10XCmax
  Cytochrome c release 10XCmax: 0
[6]; 20XCmax
  Cytochrome c release 20XCmax: 0
[6]; 30XCmax
  Cytochrome c release 30XCmax: 0
[6]; 50XCmax
  Cytochrome c release 50XCmax: 0
[6]; 100XCmax
  Cytochrome c release 100XCmax: 0
[7]
  Cmax: 130 nM
[8]; 1XCmax
  ROS measured by CM-H2DCFDA at 1XCmax: 0
[8]; 2.5XCmax
  ROS measured by CM-H2DCFDA at 2.5XCmax: 0
[8]; 5XCmax
  ROS measured by CM-H2DCFDA at 5XCmax: 0
[8]; 10XCmax
  ROS measured by CM-H2DCFDA at 10XCmax: 0
[8]; 20XCmax
  ROS measured by CM-H2DCFDA at 20XCmax: 0
[8]; 30XCmax
  ROS measured by CM-H2DCFDA at 30XCmax: 0
[8]; 50XCmax
  ROS measured by CM-H2DCFDA at 50XCmax: 0
[8]; 100XCmax
  ROS measured by CM-H2DCFDA at 100XCmax: 0
